The test concerns HCT116 colorectal cancer cells. The experiment in a line: Cisplatin sensitization assay (96 h cell viability MTS).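 Further: compound concentration needed to lower the Cisplatin-alone IC50 by a set fold.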 The format is cell-based. The settings on record: 96 h MTS, compound plus Cisplatin. The method, then:
Compounds can be screened for their ability to sensitize HCT116 colorectal cancer cells to Cisplatin using a 96 h cell viability (MTS) assay. […] Compounds and Cisplatin are then both added simultaneously to the cell media in 2-fold serial dilutions from a top final concentration of 10 μM as a full matrix of concentrations in a final cell volume of 200 μl, and the cells are then incubated at 37° C. in 5% CO2. After 96 h, 40 μl of MTS reagent (Promega G358a) is added to each well and the cells are incubated for 1 h at 37° C. in 5% CO2.
Consider `Nc1nn2cc(F)cnc2c1C(=O)Nc1cnccc1N1CCN(C2CCOC2)CC1` (racemic) [I-N-19, (R,S)-2-amino-6-fluoro-N-(4-(4-(tetrahydrofuran-3-yl)piperazin-1-yl)pyridin-3-yl)pyrazolo[1,5-a]pyrimidine-3-carboxamide], for which the “Cisplatin Sensitization Assay” value is “+++ (Compounds with a Cisplatin sensitization value of <0.02 μM are marked with “+++.”)”.
For `N#CCc1cnc2c(C(=O)Nc3cnccc3OC3CCCNC3)c(N)nn2c1` (racemic) [I-O-2, (R,S)-2-amino-6-(cyanomethyl)-N-(4-(piperidin-3-yloxy)pyridin-3-yl)pyrazolo[1,5-a]pyrimidine-3-carboxamide] the value was “++ (Compounds with a Cisplatin sensitization value >0.02 μM but <0.2 μM are marked with “++.”)”.
As for `Nc1nn2cc(F)cnc2c1C(=O)Nc1cnccc1OC1CN2CCC1CC2` (racemic) [I-O-6, (R,S)-2-amino-6-fluoro-N-(4-(quinuclidin-3-yloxy)pyridin-3-yl)pyrazolo[1,5-a]pyrimidine-3-carboxamide], the entry is “+++ (Compounds with a Cisplatin sensitization value of <0.02 μM are marked with “+++.”)”; as for `Nc1nn2cc(F)cnc2c1C(=O)Nc1cnccc1OC1CCOC1` (racemic) [I-O-15, (R,S)-2-amino-6-fluoro-N-(4-((tetrahydrofuran-3-yl)oxy)pyridin-3-yl)pyrazolo[1,5-a]pyrimidine-3-carboxamide], “+++ (Compounds with a Cisplatin sensitization value of <0.02 μM are marked with “+++.”)”.
As for `CN1CCC(c2ccncc2NC(=O)c2c(N)nn3cc(F)cnc23)CC1` [I-C-1, 2-amino-6-fluoro-N-(4-(1-methylpiperidin-4-yl)pyridin-3-yl)pyrazolo[1,5-a]pyrimidine-3-carboxamide], the entry is “++ (Compounds with a Cisplatin sensitization value >0.02 μM but <0.2 μM are marked with “++.”)”; as for `Cc1ccncc1NC(=O)c1c(N)nn2cc(Cl)cnc12` [I-C-2, 2-amino-6-chloro-N-(4-methylpyridin-3-yl)pyrazolo[1,5-a]pyrimidine-3-carboxamide], “++ (Compounds with a Cisplatin sensitization value >0.02 μM but <0.2 μM are marked with “++.”)”.
For `Cc1ccncc1NC(=O)c1c(N)nn2cc(F)cnc12` [I-C-4, 2-amino-6-fluoro-N-(4-methylpyridin-3-yl)pyrazolo[1,5-a]pyrimidine-3-carboxamide], the “Cisplatin Sensitization Assay” value was “++ (Compounds with a Cisplatin sensitization value >0.02 μM but <0.2 μM are marked with “++.”)”.
For `Nc1nn2cc(F)cnc2c1C(=O)Nc1cnccc1-c1ccccc1` [I-C-5, 2-amino-6-fluoro-N-(4-phenylpyridin-3-yl)pyrazolo[1,5-a]pyrimidine-3-carboxamide] the value was “+++ (Compounds with a Cisplatin sensitization value of <0.02 μM are marked with “+++.”)”; for `N#CCc1cnc2c(C(=O)Nc3cnccc3-c3ccccc3)c(N)nn2c1` [I-C-6, 2-amino-6-(cyanomethyl)-N-(4-phenylpyridin-3-yl)pyrazolo[1,5-a]pyrimidine-3-carboxamide], “+++ (Compounds with a Cisplatin sensitization value of <0.02 μM are marked with “+++.”)”.
For `Nc1nn2cc(F)cnc2c1C(=O)Nc1cncc2c1CCNC2` [I-C-7, 2-amino-6-fluoro-N-(5,6,7,8-tetrahydro-2,7-naphthyridin-4-yl)pyrazolo[1,5-a]pyrimidine-3-carboxamide] the value was “++ (Compounds with a Cisplatin sensitization value >0.02 μM but <0.2 μM are marked with “++.”)”; for `CN1CCc2c(cncc2NC(=O)c2c(N)nn3cc(F)cnc23)C1` [I-C-8, 2-amino-6-fluoro-N-(7-methyl-5,6,7,8-tetrahydro-2,7-naphthyridin-4-yl)pyrazolo[1,5-a]pyrimidine-3-carboxamide], “+ (Compounds with a Cisplatin sensitization value >0.2 μM but <5 μM are marked with “+.”)”.
In the case of `C[N+]1([O-])CCc2c(cncc2NC(=O)c2c(N)nn3cc(F)cnc23)C1` (centres unmarked) [I-C-9, 5-(2-amino-6-fluoropyrazolo[1,5-a]pyrimidine-3-carboxamido)-2-methyl-1,2,3,4-tetrahydro-2,7-naphthyridine 2-oxide], the “Cisplatin Sensitization Assay” value is “+ (Compounds with a Cisplatin sensitization value >0.2 μM but <5 μM are marked with “+.”)”.
For `Nc1nn2cc(F)cnc2c1C(=O)Nc1cnccc1C1CCN(C2COC2)CC1` [I-C-10, 2-amino-6-fluoro-N-(4-(1-(oxetan-3-yl)piperidin-4-yl)pyridin-3-yl)pyrazolo[1,5-a]pyrimidine-3-carboxamide] the value was “+++ (Compounds with a Cisplatin sensitization value of <0.02 μM are marked with “+++.”)”; for `Nc1nn2cc(Cl)cnc2c1C(=O)Nc1cnccc1C1CCN(C2COC2)CC1` [I-C-11, 2-amino-6-chloro-N-(4-(1-(oxetan-3-yl)piperidin-4-yl)pyridin-3-yl)pyrazolo[1,5-a]pyrimidine-3-carboxamide], “+++ (Compounds with a Cisplatin sensitization value of <0.02 μM are marked with “+++.”)”; for `Nc1nn2cc(F)cnc2c1C(=O)Nc1cncc(F)c1C1=CCN(C2COC2)CC1` [I-C-12, 2-amino-6-fluoro-N-(5-fluoro-1′-(oxetan-3-yl)-1′,2′,3′,6′-tetrahydro-[4,4′-bipyridin]-3-yl)pyrazolo[1,5-a]pyrimidine-3-carboxamide], “+++ (Compounds with a Cisplatin sensitization value of <0.02 μM are marked with “+++.”)”.
For `Nc1nn2cc(F)cnc2c1C(=O)Nc1cncc(F)c1C1CCN(C2COC2)CC1` [I-C-13, 2-amino-6-fluoro-N-(5-fluoro-4-(1-(oxetan-3-yl)piperidin-4-yl)pyridin-3-yl)pyrazolo[1,5-a]pyrimidine-3-carboxamide] the value was “++ (Compounds with a Cisplatin sensitization value >0.02 μM but <0.2 μM are marked with “++.”)”; for `CN1CCC(c2c(F)cncc2NC(=O)c2c(N)nn3cc(F)cnc23)CC1` [I-C-14, 2-amino-6-fluoro-N-(5-fluoro-4-(1-methylpiperidin-4-yl)pyridin-3-yl)pyrazolo[1,5-a]pyrimidine-3-carboxamide], “+ (Compounds with a Cisplatin sensitization value >0.2 μM but <5 μM are marked with “+.”)”.
Turning to `Nc1nn2cc(F)cnc2c1C(=O)Nc1cnccc1-c1cccnc1` [I-C-15, N-([3,4′-bipyridin]-3′-yl)-2-amino-6-fluoropyrazolo[1,5-a]pyrimidine-3-carboxamide], the “Cisplatin Sensitization Assay” value is on record as “++ (Compounds with a Cisplatin sensitization value >0.02 μM but <0.2 μM are marked with “++.”)”.
For `CN1CCC(C(=O)N2CCC(c3ccncc3NC(=O)c3c(N)nn4cc(F)cnc34)CC2)CC1` [I-C-16, 2-amino-6-fluoro-N-(4-(1-(1-methylpiperidine-4-carbonyl)piperidin-4-yl)pyridin-3-yl)pyrazolo[1,5-a]pyrimidine-3-carboxamide] the value was “+ (Compounds with a Cisplatin sensitization value >0.2 μM but <5 μM are marked with “+.”)”.
As for `CN1CCN(C(=O)N2CCC(c3ccncc3NC(=O)c3c(N)nn4cc(F)cnc34)CC2)CC1` [I-C-17, 2-amino-6-fluoro-N-(4-(1-(4-methylpiperazine-1-carbonyl)piperidin-4-yl)pyridin-3-yl)pyrazolo[1,5-a]pyrimidine-3-carboxamide], the entry is “++ (Compounds with a Cisplatin sensitization value >0.02 μM but <0.2 μM are marked with “++.”)”.
